Test results published in patent US10961234B2, “Oxazole derivatives for use in the treatment of cancer” (LIFEARC, priority 2016, dated 2021).
pEC50, pIC50: −log10 of the molar value.

How the values were obtained:
[1] = target: T1, WT full length PAICS (Homo sapiens, UniProt P22234); assay: Biochemical assay to measure PAICS activity (Transcreener ADP2 FI, SAICAR synthetase reaction); conditions: PAICS 2.5 nM, 30 mins pre-incubation, ADP detection by fluorescence intensity
T1 construct: 5 μl WT full length PAICS (final assay concentration, fac, 2.5 nM) in basic buffer
T1 sequence (P22234 1-425): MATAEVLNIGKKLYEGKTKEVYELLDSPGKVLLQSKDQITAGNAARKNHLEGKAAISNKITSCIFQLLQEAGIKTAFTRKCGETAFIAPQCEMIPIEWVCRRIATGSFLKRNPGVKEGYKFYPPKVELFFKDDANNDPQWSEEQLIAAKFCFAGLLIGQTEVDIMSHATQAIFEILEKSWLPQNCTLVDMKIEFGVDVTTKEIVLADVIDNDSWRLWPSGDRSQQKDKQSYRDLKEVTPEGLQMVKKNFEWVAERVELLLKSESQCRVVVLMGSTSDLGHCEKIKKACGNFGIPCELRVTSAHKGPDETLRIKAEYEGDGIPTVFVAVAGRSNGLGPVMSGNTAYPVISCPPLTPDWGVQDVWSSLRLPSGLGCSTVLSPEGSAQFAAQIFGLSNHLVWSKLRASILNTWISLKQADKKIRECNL
In short: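 Enzyme (2.5 nM) pre-incubated 30 min RT with compound (top 1 mM or 30 μM, half-log 10-point, duplicate) in 50 mM Tris-HCl pH8, 0.5 mM EDTA; CAIR (10 μM, ~5 μM after 1 h AIR/CAIR equilibration with MgCl2/KHCO3) then ATP/aspartate (30 μM/180 μM) for 30 min RT. ADP read by Transcreener fluorescence intensity (590/617 nm).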

[2] = test system: LM2 and MDA-MB-231 breast cancer cell lines; assay: PAICS 2D cell proliferation assay; format: cell-based; conditions: Homo sapiens; 72 hours incubation; cell line (LM2 or MDA-MB-231) not given
In short: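 Cells seeded at 1000/well, dosed after 24 h with a 10-point ½-log series (top 100 μM, 1% DMSO final), then incubated 72 h at 37 °C. Dead cells measured by CellTox Green DNA staining and viability by CellTiter-Glo ATP luminescence, both expressed as % of controls (mean±SEM, duplicate curves).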

[3] = test system: wild type LM2 and CRISPR edited LM2; assay: Cell potency in CRISPR edited (PAICS knock-out) LM2 versus wild type LM2; format: cell-based, human; conditions: CRISPR edited LM2 vs wild type LM2
Method: Cas9 nuclease-mediated gene editing (Sander and Joung, 2014) was performed using a CRISPR RNA guide sequence ([…], PAM: AGG) targeting exon 3 in the human PAICS gene (accession number: NM_006452).
Stable cell clones were isolated and gene disruption confirmed by DNA sequencing and the absence of PAICS cellular protein expression confirmed by Western blotting.
A small set of compounds were tested against wild type LM2 and CRISPR edited LM2 to see to what extent the cellular potency was driven by PAICS mediated effects.

| pIC50 [1] | pEC50 [2] | Potency shift: CRISPR Cell EC50/WT Cell EC50 [3] | Compound |
| --- | --- | --- | --- |
| < 7.00 | 6.60 to 7.00 | >10 | CN1CCN(c2ccc(-c3ccc(Cl)c(NC(=O)c4coc(N)n4)c3)cn2)CC1 [Example 37, 2-Amino-N-{2-chloro-5-[6-(4-methylpiperazin-1-yl)pyridin-3-yl]phenyl}-1,3-oxazole-4-carboxamide] |
| 7.60 to 8.00 | > 7.00 | >80 | CCNCCCn1cc(-c2ccc(Cl)c(NC(=O)c3coc(N)n3)c2)cn1 [Example 47, 2-Amino-N-(2-chloro-5-(1-(3-(ethylamino)propyl)-1H-pyrazol-4-yl)phenyl)oxazole-4-carboxamide] |
| > 8.00 | > 7.00 | >30 | CN(C)CCCOc1ncc(-c2ccc(Cl)c(NC(=O)c3coc(N)n3)c2)s1 [Example 86, 2-Amino-N-(2-chloro-5-{2-[3-(dimethylamino)propoxy]-1,3-thiazol-5-yl}phenyl)-1,3-oxazole-4-carboxamide] |
| 7.00 to 7.60 | 6.30 to 6.60 |  | CN(C)CCCOc1ccc(-c2ccc(Cl)c(NC(=O)c3coc(N)n3)c2)nc1 [Example 93, 2-Amino-N-(2-chloro-5-{5-[3-(dimethylamino)propoxy]pyridin-2-yl}phenyl)-1,3-oxazole-4-carboxamide] |

The next lines start with the compound.

| Compound | pIC50 [1] | pEC50 [2] | Potency shift: CRISPR Cell EC50/WT Cell EC50 [3] |
| --- | --- | --- | --- |
| CNC1CCN(Cc2ncc(-c3ccc(Cl)c(NC(=O)c4coc(N)n4)c3)s2)CC1 [Example 91, 2-Amino-N-[2-chloro-5-(2-{[4-(methylamino)piperidin-1-yl]methyl}-1,3-thiazol-5-yl)phenyl]-1,3-oxazole-4-carboxamide] | > 8.00 | > 7.00 |  |
| CSc1ccc(-c2ccc(OCCCN(C)C)nc2)cc1NC(=O)c1coc(N)n1 [Example 92, 2-Amino-N-[5-{6-[3-(dimethylamino)propoxy]pyridin-3-yl}-2-(methylsulfanyl)phenyl]-1,3-oxazole-4-carboxamide] | 7.00 to 7.60 | 6.30 to 6.60 |  |
| CNCC1CCN(Cc2ncc(-c3ccc(Cl)c(NC(=O)c4coc(N)n4)c3)s2)CC1 [Example 94, 2-Amino-N-{2-chloro-5-[2-({4-[(methylamino)methyl]piperidin-1-yl}methyl)-1,3-thiazol-5-yl]phenyl}-1,3-oxazole-4-carboxamide] | 7.60 to 8.00 | > 7.00 |  |
| CNC1CCCN(Cc2ncc(-c3ccc(Cl)c(NC(=O)c4coc(N)n4)c3)s2)C1 (stereo not shown) [Example 95, 2-Amino-N-[2-chloro-5-(2-{[3-(methylamino)piperidin-1-yl]methyl}-1,3-thiazol-5-yl)phenyl]-1,3-oxazole-4-carboxamide] | > 8.00 | 6.60 to 7.00 |  |
